In test [1] the target is T1, hAMY3R (Homo sapiens, UniProt O60896+P30988).
T1 sequence (P30988 25-474): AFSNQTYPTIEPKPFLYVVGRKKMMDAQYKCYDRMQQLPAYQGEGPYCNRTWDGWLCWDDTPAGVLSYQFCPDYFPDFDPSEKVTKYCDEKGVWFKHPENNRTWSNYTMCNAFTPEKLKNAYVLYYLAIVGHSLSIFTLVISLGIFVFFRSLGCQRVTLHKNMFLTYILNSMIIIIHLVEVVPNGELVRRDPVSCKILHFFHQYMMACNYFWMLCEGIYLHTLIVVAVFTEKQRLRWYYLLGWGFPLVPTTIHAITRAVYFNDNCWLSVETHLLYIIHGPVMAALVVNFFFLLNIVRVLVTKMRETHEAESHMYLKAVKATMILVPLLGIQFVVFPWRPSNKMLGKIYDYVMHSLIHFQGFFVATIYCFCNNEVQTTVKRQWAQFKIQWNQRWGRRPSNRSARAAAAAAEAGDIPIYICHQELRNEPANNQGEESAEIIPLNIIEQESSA
T1 sequence (O60896 24-148 partner): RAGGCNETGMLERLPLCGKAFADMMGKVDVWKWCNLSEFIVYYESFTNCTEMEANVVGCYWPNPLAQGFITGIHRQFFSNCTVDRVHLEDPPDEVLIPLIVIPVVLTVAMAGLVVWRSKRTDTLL
Nature of the test: scintillation proximity binding assay, hAMY3R membranes. The conditions noted are these: for ratio hCTR/hAMY3R: ratio of binding IC50 values. Also noted: expressed in transfected cells; host or cells: BHK tk-ts 13, transient co-transfection; membranes for the SPA, whole cells for the species-specific assays.

Test [2] addresses T2, rAMY3R (Rattus norvegicus, UniProt P32214+Q9JJ73).
T2 sequence (P32214 25-479 isoform P32214-2 limits assumed): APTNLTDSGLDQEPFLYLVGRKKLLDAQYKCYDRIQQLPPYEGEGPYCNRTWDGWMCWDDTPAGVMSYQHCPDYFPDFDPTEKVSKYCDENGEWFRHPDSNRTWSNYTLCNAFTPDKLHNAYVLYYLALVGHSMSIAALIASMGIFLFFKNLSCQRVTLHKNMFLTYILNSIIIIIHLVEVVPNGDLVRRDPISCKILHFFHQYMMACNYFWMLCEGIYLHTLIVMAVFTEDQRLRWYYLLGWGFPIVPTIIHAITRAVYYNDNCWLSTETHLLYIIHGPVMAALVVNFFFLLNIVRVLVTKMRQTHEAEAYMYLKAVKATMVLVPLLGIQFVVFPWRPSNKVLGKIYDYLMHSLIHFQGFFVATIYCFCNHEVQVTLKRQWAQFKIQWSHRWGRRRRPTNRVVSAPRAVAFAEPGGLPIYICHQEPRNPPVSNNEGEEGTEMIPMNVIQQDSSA
T2 sequence (Q9JJ73 23-147 partner): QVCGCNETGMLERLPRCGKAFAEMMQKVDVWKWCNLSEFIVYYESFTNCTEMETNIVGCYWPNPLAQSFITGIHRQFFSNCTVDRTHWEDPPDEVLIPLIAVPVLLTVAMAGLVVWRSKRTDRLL
Description: scintillation proximity binding assay, rAMY3R membranes. Also noted: expressed in transfected cells; host or cells: BHK tk-ts 13, transient co-transfection (FuGENE 6). The conditions noted are these: for ratio rCTR/rAMY3R: ratio of binding IC50 values.

Test [3] addresses T1, hAMY3R. Description: cAMP-responsive element luciferase reporter assay, human AMY3R. Format: cell-based. The arrangement: expressed in transfected cells. Conditions: for hAMY3R pEC50 / EC50: luciferase (human receptor assay); for ratio hCTR/hAMY3R: ratio of luciferase EC50 values. On the technique in general: Reporter assays use an easily measured gene product as a stand-in for the process of interest.

Setting [4] is: SPA binding assay, Tables S13 and S15.
[5] abbreviates: SPA binding assay, Tables S13 and S15, read-out: hAMY3R pIC50 (converted).
[6] abbreviates: SPA, BHK cell membranes, 125I-rat amylin, 120 min 25 °C, read-out: hAMY3R IC50.
[7] abbreviates: SPA binding assay, Tables S13 and S15, read-out: rAMY3R pIC50 (converted).
The mark [8] stands for this setting: SPA, BHK cell membranes, 125I-rat amylin, 120 min 25 °C, read-out: rAMY3R IC50.
[9] abbreviates: Tables S12 and S14, read-out: hAMY3R pEC50 (converted).
Where [10] appears, read: BHK cells stably expressing hCTR+RAMP3 and CRE-luciferase, 3 h, 37 °C, 10% FBS, read-out: hAMY3R EC50.

Read-outs that look alike come from different tables or passages of the source. Numbered stars: 1 amine (or outer) side, 2 acyl side, 3 side chain; on linkers, the order of the positions; unused ones are H or OH. Bridge positions count the residues as written; N and C are the ends. Peptide text beside a SMILES is read from it. * marks the point of attachment. C20 diacid = O=C(O)CCCCCCCCCCCCCCCCCCC(=O)*; γGlu = O=C(O)[C@H](CCC(=O)[*:2])N[*:1]

For the compound `CC[C@H](C)[C@H](NC(=O)[C@H](C)NC(=O)CNC(=O)[C@H](Cc1ccccc1)NC(=O)[C@H](CC(N)=O)NC(=O)[C@@H]1CCCN1C(=O)[C@H](CO)NC(=O)[C@H](CO)NC(=O)[C@H](Cc1c[nH]cn1)NC(=O)[C@H](CCCNC(=N)N)NC(=O)[C@H](CC(C)C)NC(=O)[C@H](Cc1ccccc1)NC(=O)[C@H](CC(N)=O)NC(=O)[C@H](C)NC(=O)[C@H](CC(C)C)NC(=O)[C@H](CCCNC(=N)N)NC(=O)[C@H](CCC(N)=O)NC(=O)[C@@H](NC(=O)[C@H](C)NC(=O)[C@@H]1CSSC[C@H](NC(=O)[C@H](CCCNC(=N)N)NC(=O)CNC(=O)CC[C@H](NC(=O)CCCCCCCCCCCCCCCCCCC(=O)O)C(=O)O)C(=O)N[C@@H](CC(N)=O)C(=O)N[C@@H]([C@@H](C)O)C(=O)N[C@@H](C)C(=O)N[C@@H]([C@@H](C)O)C(=O)N1)[C@@H](C)O)C(=O)N1CCC[C@H]1C(=O)N[C@@H](CO)C(=O)N[C@@H](CO)C(=O)N[C@H](C(=O)N[C@@H](CC(N)=O)C(=O)N[C@H](C(=O)NCC(=O)N[C@@H](CO)C(=O)N[C@@H](Cc1c[nH]cn1)C(=O)N[C@H](C(=O)N[C@@H](Cc1ccc(O)cc1)C(N)=O)[C@@H](C)O)C(C)C)[C@@H](C)O` [Peptide 19] ({C20 diacid-γGlu}-GRCNTATCATQRLANFLRHSSPNFGAIPSSTNVGSHTY-NH2; disulfide 3-8), the “hAMY3R pIC50” value in test [1] (setting [4]) was 9.46. The “ratio hCTR/hAMY3R” value is reported as 45 in test [1] and 6 in test [3]. For the same compound, the “rAMY3R pIC50” value in test [2] (setting [4]) is recorded as 9.69. In test [2], the “ratio rCTR/rAMY3R” value was 84. For the same compound, the “hAMY3R pEC50” value in test [3] (Tables S12 and S14) was 9.65.
For `CC[C@H](C)[C@H](NC(=O)[C@H](C)NC(=O)CNC(=O)[C@H](Cc1ccccc1)NC(=O)[C@H](CC(N)=O)NC(=O)[C@@H]1CCCN1C(=O)[C@H](CO)NC(=O)[C@H](CO)NC(=O)[C@H](Cc1c[nH]cn1)NC(=O)[C@H](CCCNC(=N)N)NC(=O)[C@H](CC(C)C)NC(=O)[C@H](Cc1ccccc1)NC(=O)[C@H](CC(N)=O)NC(=O)[C@H](C)NC(=O)[C@H](CC(C)C)NC(=O)[C@H](CCCNC(=N)N)NC(=O)[C@H](CCC(N)=O)NC(=O)[C@@H](NC(=O)[C@H](C)NC(=O)[C@@H]1CSSC[C@H](NC(=O)[C@H](CCCCN)NC(=O)CC[C@H](NC(=O)CCCCCCCCCCCCCCCCCCC(=O)O)C(=O)O)C(=O)N[C@@H](CC(N)=O)C(=O)N[C@@H]([C@@H](C)O)C(=O)N[C@@H](C)C(=O)N[C@@H]([C@@H](C)O)C(=O)N1)[C@@H](C)O)C(=O)N1CCC[C@H]1C(=O)N[C@@H](CO)C(=O)N[C@@H](CO)C(=O)N[C@H](C(=O)N1CCC[C@H]1C(=O)N[C@H](C(=O)NCC(=O)N[C@@H](CO)C(=O)N[C@@H](CCC(=O)O)C(=O)N[C@H](C(=O)N[C@@H](Cc1ccc(O)cc1)C(N)=O)[C@@H](C)O)C(C)C)[C@@H](C)O` [Peptide 11] ({C20 diacid-γGlu}-KCNTATCATQRLANFLRHSSPNFGAIPSSTPVGSETY-NH2; disulfide 2-7), the IC50 in test [1] (setting [5]) is 0.589 nM; in test [1] (setting [6]), 0.589 nM; in test [2] (setting [7]), 1.17 nM; in test [2] (setting [8]), 1.17 nM. Further, the “ratio hCTR/hAMY3R” value is listed as 20 in test [1] and 11 in test [3]. Moreover, in test [2], the “ratio rCTR/rAMY3R” value worked out at 44. The EC50 in test [3] (setting [9]) and in test [3] (setting [10]) was 0.186 nM each time.
Take `CC[C@H](C)[C@H](NC(=O)[C@H](C)NC(=O)CNC(=O)[C@H](Cc1ccccc1)NC(=O)[C@H](CC(N)=O)NC(=O)[C@@H]1CCCN1C(=O)[C@H](CO)NC(=O)[C@H](CO)NC(=O)[C@H](Cc1c[nH]cn1)NC(=O)[C@H](CCCNC(=N)N)NC(=O)[C@H](CC(C)C)NC(=O)[C@H](Cc1ccccc1)NC(=O)[C@H](CC(N)=O)NC(=O)[C@H](C)NC(=O)[C@H](CC(C)C)NC(=O)[C@H](CCCNC(=N)N)NC(=O)[C@H](CCC(N)=O)NC(=O)[C@@H](NC(=O)[C@H](C)NC(=O)[C@@H]1CSSC[C@H](NC(=O)[C@@H](N)CCCCNC(=O)CC[C@H](NC(=O)CCCCCCCCCCCCCCCCCCC(=O)O)C(=O)O)C(=O)N[C@@H](CC(N)=O)C(=O)N[C@@H]([C@@H](C)O)C(=O)N[C@@H](C)C(=O)N[C@@H]([C@@H](C)O)C(=O)N1)[C@@H](C)O)C(=O)N1CCC[C@H]1C(=O)N[C@@H](CO)C(=O)N[C@@H](CO)C(=O)N[C@H](C(=O)N[C@@H](CC(N)=O)C(=O)N[C@H](C(=O)NCC(=O)N[C@@H](CO)C(=O)N[C@@H](CCCCN)C(=O)N[C@H](C(=O)N[C@@H](Cc1ccc(O)cc1)C(N)=O)[C@@H](C)O)C(C)C)[C@@H](C)O` [Peptide 14]: the IC50 in test [1] (setting [5]) was 0.891 nM; in test [1] (setting [6]), 0.885 nM; in test [2] (setting [7]), 0.912 nM; in test [2] (setting [8]) it was 0.92 nM. For the same compound, the “ratio hCTR/hAMY3R” value in test [1] is 48; in test [3], 15. For the same compound, the “ratio rCTR/rAMY3R” value in test [2] amounted to 60. For the same compound, the “hAMY3R pEC50” value in test [3] (Tables S12 and S14) is 9.44.
Turning to `CC[C@H](C)[C@H](NC(=O)[C@H](C)NC(=O)CNC(=O)[C@H](Cc1ccccc1)NC(=O)[C@H](CC(N)=O)NC(=O)[C@@H]1CCCN1C(=O)[C@H](CO)NC(=O)[C@H](CO)NC(=O)[C@H](Cc1c[nH]cn1)NC(=O)[C@H](CCCNC(=N)N)NC(=O)[C@H](CC(C)C)NC(=O)[C@H](Cc1ccccc1)NC(=O)[C@H](CC(N)=O)NC(=O)[C@H](C)NC(=O)[C@H](CC(C)C)NC(=O)[C@H](CCCNC(=N)N)NC(=O)[C@H](CCC(N)=O)NC(=O)[C@@H](NC(=O)[C@H](C)NC(=O)[C@@H]1CSSC[C@H](NC(=O)[C@H](CCCCN)NC(=O)CC[C@H](NC(=O)CCCCCCCCCCCCCCCCCCC(=O)O)C(=O)O)C(=O)N[C@@H](CC(N)=O)C(=O)N[C@@H]([C@@H](C)O)C(=O)N[C@@H](C)C(=O)N[C@@H]([C@@H](C)O)C(=O)N1)[C@@H](C)O)C(=O)N1CCC[C@H]1C(=O)N[C@@H](CO)C(=O)N[C@@H](CO)C(=O)N[C@H](C(=O)N[C@@H](CC(N)=O)C(=O)N[C@H](C(=O)NCC(=O)N[C@@H](Cc1c[nH]cn1)C(=O)N[C@@H](CC(N)=O)C(=O)N[C@H](C(=O)N[C@@H](Cc1ccc(O)cc1)C(N)=O)[C@@H](C)O)C(C)C)[C@@H](C)O` [Peptide 17], the IC50 in test [1] (setting [5]) is 0.479 nM; in test [1] (setting [6]) it was 0.484 nM; in test [2] (setting [7]) it was 1.29 nM; in test [2] (setting [8]) it was 1.29 nM. Also, the “ratio hCTR/hAMY3R” value came to 29 in test [1] and 17 in test [3]. For the same compound, the “ratio rCTR/rAMY3R” value in test [2] is listed as 39. Moreover, the EC50 in test [3] (setting [9]) and in test [3] (setting [10]) was 0.151 nM throughout.

The values above are taken from PMC11284788, “NN1213 – A Potent, Long-Acting, and Selective Analog of Human Amylin” (Journal of Medicinal Chemistry, 2024).
